From patent publication US8912209B2, “Rock inhibitors” (Amakem NV, priority 2010, dated 2014)
Where two headings read alike, the source gives them in different places.

Columns and labels:
LPS-stimulated PBMC = experiment: Cellular assay using LPS-stimulated PBMC, TNF release (ELISA), in the absence and presence of plasma; format: cell-based
Excerpt: C.1.2. Activity Against ROCK in a Cellular Assay Using LPS-Stimulated PBMC in the Absence and Presence of Plasma
To ensure the stimulation of PBMC by LPS, the medium is enriched with LPS-binding protein (LBP) that will facilitate the delivery of LPS to the CD14 receptor and enhance the LPS-induced immune response. Cytokines secreted by activated PBMC include TNF, which is detected by means of a colorimetric ELISA. In the presence of an active compound, the release of TNF is inhibited in a concentration-dependent manner. Subsequently a control assay using the same set up in the presence of plasma is included.

[1] = Stability towards drug metabolizing enzymes in lung S9; format: in vitro ADME; details: human, lung S9 from smokers with NADPH, UDPGA, PAPS and GSH, read-out: t½ human lung S9
Procedure: i) C.2.2. Stability Towards Drug Metabolizing Enzymes in Lung S9
A 1 μM solution of the ROCK inhibitors is incubated with a reaction mixture containing lung S9 (from smokers) as well as the cofactors NADPH, UDPGA, PAPS and GSH. Samples are collected at 0, 15, 30 and 60 minutes post incubation. Negative control samples incubated with ROCK inhibitors and S9 fraction in the absence of cofactors are run in parallel. By using LC-MS/MS analysis, the percent of ROCK compounds remaining at each time point, the metabolic half-life of the ROCK compounds (expressed in minutes) and the metabolic half-life of the control compounds are determined.

[2] = Stability assay in human plasma; format: in vitro ADME; details: 1 μM in human plasma, LC-MS/MS; read-out: t½ human plasma
Procedure: (§1) C.2.1. Stability Assay in Human and/or Rat Plasma
(§2) Compounds are incubated at a concentration of 1 μM in rat (mice or rabbit) or human plasma. Samples are taken at fixed time points and the remnant of compound is determined by LC-MS/MS after protein precipitation. Half life is expressed in minutes.

ROCKα/ROCKII = biological target: T1, ROCKα/ROCKII (Homo sapiens, UniProt O75116); experiment: ROCK inhibition, Method 2 fluorescence polarization (FP) assay, ROCK IMAP Kit; format: biochemical; details: 10 μM ATP, read-out: IC50 Meth. 2
T1 construct: purchased Upstate Biotechnology 14-451

ROCK II = biological target: T2, ROCK II (Homo sapiens, UniProt O75116); experiment: ROCK II kinase inhibition, Method 1 Proqinase setup (33P radioisotopic protein kinase assay); format: biochemical; details: 33P radioisotopic assay, 1 μM ATP, read-out: IC50 Meth. 1
T2 construct: purchased Proqinase
Procedure: A ^33P radioisotopic protein kinase assay is used to determine the IC50 for inhibiting ROCK II. A final 50 μl reaction cocktail, containing 60 mM HEPES-NaOH (pH 7.5), 3 mM MgCl2, 3 mM MnCl2, 3 μM Na-orthovanadate, 1.2 mM DTT, 1 μM ATP, 50 μg/ml PEG20.000, 1% (v/v) DMSO, 1 μM ATP (approx. 3×10^5 cpm ^33P-γ-ATP), the substrate (Substrate: S6 peptide—2000 ng/well) and recombinant protein kinase (0.5 nM-2.5 ng/well) is mixed on a shaker and incubated at 30° C. for 80 minutes. The reaction is stopped by the addition of 50 μl of a 2% solution of H3PO4 and mixed on a shaker. After washing twice with 200 μl of a 0.9% solution of NaCl, the dry plate is counted.

[3] = Stability assay in rat plasma; format: in vitro ADME; details: 1 μM in rat plasma, LC-MS/MS; read-out: t½ rat plasma
Procedure: as §1, §2

[4] = Stability assay in rabbit aqueous humor; format: in vitro ADME; details: 1 μM in rabbit aqueous humor, LC-MS/MS; read-out: t½ rabbits AH
Procedure: i) C.2.3. Stability Assay in Rabbit Aqueous Humor
Compounds are incubated at a concentration of 1 μM in rabbit aqueous humor (AH). Samples are taken at fixed time points and the remnant of compound is determined by LC-MS/MS after protein precipitation.

Guinea pig trachea rings = experiment: Smooth muscle relaxing activity in organ baths of guinea pig trachea (carbachol); details: Cavia porcellus; guinea pig trachea rings contracted with carbachol
Procedure: C.1.3. Smooth Muscle Relaxing Activity of Generated Soft ROCK Inhibitors In Vitro Using Organ Baths of Guinea Pig Trachea
Guinea pig trachea rings are prepared and incubated with a fixed concentration of the bronchoconstrictive agent carbachol. Then, increasing concentrations of the soft ROCK inhibitors are added and the contractive properties of the trachea measured for each of the compound concentrations. The study set-up allows the determination of an IC50, represented by the concentration of compound that induces a force equal to 50% of that observed for the vehicle-treated trachea.
In addition retention on the target is assessed using the above described organ baths of guinea pig trachea. In brief, upon induction of maximal relaxation with the ROCK inhibitors, trachea rings are thoroughly washed. Then, carbachol is added again and contractive properties are measured to determine whether the inhibitory activity of the ROCK inhibitors is prolonged upon the washout. A prolonged inhibitory activity after the washout is highly indicative for a prolonged retention of the compound at the lungs in vivo.

T2 sequence (O75116 whole entry): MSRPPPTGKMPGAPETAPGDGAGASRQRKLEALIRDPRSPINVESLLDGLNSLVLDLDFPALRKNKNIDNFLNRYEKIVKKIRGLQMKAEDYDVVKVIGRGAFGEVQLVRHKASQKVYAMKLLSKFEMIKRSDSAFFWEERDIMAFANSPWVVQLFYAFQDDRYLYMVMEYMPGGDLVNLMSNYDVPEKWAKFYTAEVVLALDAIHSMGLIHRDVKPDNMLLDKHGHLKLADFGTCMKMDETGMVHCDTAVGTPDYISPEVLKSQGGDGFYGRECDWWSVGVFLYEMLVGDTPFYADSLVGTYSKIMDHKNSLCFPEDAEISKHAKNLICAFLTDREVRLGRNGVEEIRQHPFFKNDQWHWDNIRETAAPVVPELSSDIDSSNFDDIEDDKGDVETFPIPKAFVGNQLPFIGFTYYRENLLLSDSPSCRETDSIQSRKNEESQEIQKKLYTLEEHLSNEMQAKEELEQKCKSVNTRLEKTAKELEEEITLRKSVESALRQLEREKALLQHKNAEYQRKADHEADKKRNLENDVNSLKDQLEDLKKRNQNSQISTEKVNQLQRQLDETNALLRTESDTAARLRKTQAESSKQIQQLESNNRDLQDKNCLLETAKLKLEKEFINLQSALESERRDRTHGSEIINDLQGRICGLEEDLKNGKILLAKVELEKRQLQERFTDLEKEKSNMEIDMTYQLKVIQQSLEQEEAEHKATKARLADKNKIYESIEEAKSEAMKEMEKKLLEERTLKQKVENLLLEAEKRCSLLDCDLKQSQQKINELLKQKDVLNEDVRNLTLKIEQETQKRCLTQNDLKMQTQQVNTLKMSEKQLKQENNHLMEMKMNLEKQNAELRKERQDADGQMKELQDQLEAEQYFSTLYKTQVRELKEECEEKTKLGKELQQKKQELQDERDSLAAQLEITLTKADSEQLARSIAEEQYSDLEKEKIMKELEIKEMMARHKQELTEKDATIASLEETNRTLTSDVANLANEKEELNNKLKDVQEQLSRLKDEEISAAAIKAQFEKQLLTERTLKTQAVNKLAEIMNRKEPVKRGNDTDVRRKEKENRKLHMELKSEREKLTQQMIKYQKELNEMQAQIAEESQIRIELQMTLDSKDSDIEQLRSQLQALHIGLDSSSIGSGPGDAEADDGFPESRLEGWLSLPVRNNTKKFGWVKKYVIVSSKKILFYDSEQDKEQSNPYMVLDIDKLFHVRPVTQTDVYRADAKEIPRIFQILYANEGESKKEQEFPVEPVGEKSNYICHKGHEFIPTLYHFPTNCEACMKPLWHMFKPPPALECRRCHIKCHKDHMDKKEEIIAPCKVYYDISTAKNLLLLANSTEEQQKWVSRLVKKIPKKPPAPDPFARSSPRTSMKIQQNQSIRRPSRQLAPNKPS
T1 sequence (O75116 whole entry): as above

CC(N)c1ccc(C(=O)Nc2ccncc2F)cc1-c1cccc(C(=O)OCC2CCCO2)c1 (stereo not drawn) [Compound 46, 2′-(1-Amino-ethyl)-5′-(3-fluoro-pyridin-4-ylcarbamoyl)-biphenyl-3-carboxylic acid tetrahydro-furan-2-ylmethyl ester]
IC50 (LPS-stimulated PBMC; in the presence of plasma, read-out: IC50 in the presence of plasma): > 10 µM | IC50 (LPS-stimulated PBMC; without plasma, read-out: IC50 (assay without plasma)): 0.12 µM | half-life at 1 μM [1]: 53 min | half-life at 1 μM [2]: 1.9 min | IC50 (ROCKα/ROCKII): < 0.1 µM | IC50 (ROCK II): 0.1 to 1 µM | half-life at 1 μM [3]: 5.8 min | half-life at 1 μM [4]: > 60 min | IC50 (Guinea pig trachea rings): 0.5 µM

CC(N)c1ccc(C(=O)Nc2ccncc2F)cc1-c1cccc(C(=O)OCC2CCCCO2)c1 (stereo not drawn) [Compound 47, 2′-(1-Amino-ethyl)-5′-(3-fluoro-pyridin-4-ylcarbamoyl)-biphenyl-3-carboxylic acid tetrahydro-pyran-2-ylmethyl ester]
half-life at 1 μM [1]: > 60 min | half-life at 1 μM [2]: 9.8 min | IC50 (ROCKα/ROCKII): < 0.1 µM | IC50 (ROCK II): 0.1 to 1 µM | half-life at 1 μM [3]: 4.5 min

CC(N)c1ccc(C(=O)Nc2ccncc2)cc1-c1cccc(C(=O)OCCO)c1 (stereo not drawn) [Compound 65, 2′-(1-Amino-ethyl)-5′-(pyridin-4-ylcarbamoyl)-biphenyl-3-carboxylic acid 2-hydroxy-ethyl ester]
half-life at 1 μM [1]: > 60 min | IC50 (ROCKα/ROCKII): < 0.1 µM | IC50 (ROCK II): < 0.1 µM

CCSC(=O)c1cccc(-c2cc(C(=O)Nc3ccncc3)ccc2CN)c1 [Compound 97, 2′-Aminomethyl-5′-(pyridin-4-ylcarbamoyl)-biphenyl-3-carbothioic acid S-ethyl ester]
half-life at 1 μM [2]: 44 min | IC50 (ROCK II): < 0.1 µM | half-life at 1 μM [3]: 38 min

CC(N)c1ccc(C(=O)Nc2ccncc2)cc1-c1cccc(OCCCSC2CCOC2=O)c1 (stereo not drawn) [Compound 131, 6-(1-Amino-ethyl)-3′-[3-(2-oxo-tetrahydro-furan-3-ylsulfanyl)-propoxy]-biphenyl-3-carboxylylic acid pyridin-4-ylamide]
IC50 (ROCKα/ROCKII): 0.1 to 1 µM | IC50 (ROCK II): 0.1 to 1 µM

CC(N)c1ccc(C(=O)Nc2ccncc2)cc1-c1cccc(OC2CCOC2=O)c1 (stereo not drawn) [Compound 134, 6-(1-Amino-ethyl)-3′-(2-oxo-tetrahydro-furan-3-yloxy)-biphenyl-3-carboxylic acid pyridin-4-ylamide]
IC50 (ROCKα/ROCKII): < 0.1 µM | IC50 (ROCK II): 0.1 to 1 µM

COC(=O)COc1cccc(-c2cc(C(=O)Nc3ccncc3)ccc2CN)c1 [Compound 137, [2′-Aminomethyl-5′-(pyridin-4-ylcarbamoyl)-biphenyl-3-yloxy]-acetic acid methyl ester]
half-life at 1 μM [2]: 1.9 min | IC50 (ROCK II): 0.1 to 1 µM | half-life at 1 μM [3]: < 1 min

CCCOC(=O)CCc1cccc(-c2cc(C(=O)Nc3ccncc3)ccc2C(C)N)c1 (stereo not drawn) [Compound 166, 3-[2′-(1-Amino-ethyl)-5′-(pyridin-4-ylcarbamoyl)-biphenyl-3-yl]-propionic acid propyl ester]
IC50 (ROCKα/ROCKII): 0.1 to 1 µM | IC50 (ROCK II): 0.1 to 1 µM

CC(N)c1ccc(C(=O)Nc2ccncc2)cc1-c1cccc(CCC(=O)Oc2ccccc2)c1 (stereo not drawn) [Compound 167, 3-[2′-(1-Amino-ethyl)-5′-(pyridin-4-ylcarbamoyl)-biphenyl-3-yl]-propionic acid phenyl ester]
IC50 (ROCKα/ROCKII): < 0.1 µM | IC50 (ROCK II): 0.1 to 1 µM

COC(=O)c1cc(-c2cc(C(=O)Nc3ccncc3)ccc2C(C)N)c[nH]1 (stereo not drawn) [Compound 168, 4-[2-(1-Amino-ethyl)-5-(pyridin-4-ylcarbamoyl)-phenyl]-1H-pyrrole-2-carboxylic acid methyl ester]
IC50 (ROCKα/ROCKII): 0.1 to 1 µM | IC50 (ROCK II): 0.1 to 1 µM

CCCOC(=O)c1cc(-c2cc(C(=O)Nc3ccncc3)ccc2C(C)N)c[nH]1 (stereo not drawn) [Compound 169, 4-[2-(1-Amino-ethyl)-5-(pyridin-4-ylcarbamoyl)-phenyl]-1H-pyrrole-2-carboxylic acid propyl ester]
IC50 (ROCK II): < 0.1 µM | half-life at 1 μM [4]: > 60 min

CC(N)c1ccc(C(=O)Nc2ccncc2)cc1-c1c[nH]c(C(=O)Oc2ccccc2)c1 (stereo not drawn) [Compound 170, 4-[2-(1-Amino-ethyl)-5-(pyridin-4-ylcarbamoyl)-phenyl]-1H-pyrrole-2-carboxylic acid phenyl ester]
IC50 (ROCKα/ROCKII): < 0.1 µM | IC50 (ROCK II): 0.1 to 1 µM

CCCOC(=O)c1cc2c(-c3cc(C(=O)Nc4ccncc4)ccc3C(C)N)cccc2[nH]1 (stereo not drawn) [Compound 172, 4-[2-(1-Amino-ethyl)-5-(pyridin-4-ylcarbamoyl)-phenyl]-1H-indole-2-carboxylic acid propyl ester]
IC50 (ROCKα/ROCKII): 0.1 to 1 µM | IC50 (ROCK II): 0.1 to 1 µM
